# Source: PMC4263137, “Positron emission tomography and functional characterization of a complete PBR/TSPO knockout” (Nature Communications, 2014)
# pKd: −log10 of the molar value.
# Biological target: T1, PBR/TSPO (18-kDa translocator protein) (Mus musculus, UniProt P50637)
# T1 construct: native protein in kidney and testis membranes of Tspo+/+ mice
# Experiment: [3H]PK11195 saturation radioligand binding on tissue membranes; autoradiography; no binding in Tspo-/- mice
# T1 sequence (P50637 whole entry): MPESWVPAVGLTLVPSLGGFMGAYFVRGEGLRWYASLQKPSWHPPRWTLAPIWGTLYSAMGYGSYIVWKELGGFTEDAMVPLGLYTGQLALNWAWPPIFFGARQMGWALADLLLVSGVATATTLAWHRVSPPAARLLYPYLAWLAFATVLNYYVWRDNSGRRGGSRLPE
smiles,measurement,value
"CCC(C)N(C)C(=O)c1cc2ccccc2c(-c2ccccc2Cl)n1 (stereo not shown) [PK11195, 1-(2-chlorophenyl)-N-methyl-(1-methylpropyl)-3 isoquinolinecarboxamide]",pKd,7.89
